Source: patent publication US8124069B2, “Immunogenic peptides” (Rush University Medical Center, priority 2002, dated 2012)
Several values for one entry are separate records, joined by “and”; a condition that tells them apart may be missing. Equal entries are not always repeated.

Columns and labels:
HLA-A2.1 = HLA-A2.1 (Homo sapiens, UniProt P04439, D140Y/D185E/D98H/E176V/E277Q/G131W/G231S/I119V/I121R/I166T/I218V/L300P/L318F/N151K/N90K/P208A/P217A/Q86G/Q94H/R138H/R169H/T345S); test: Peptide binding to HLA-A2.1+ T2 cells under Brefeldin A treatment (peptide/HLA-A2.1 complex stability)
[1] = system: HLA-A2.1 positive ML-2 cells; test: Cytotoxicity of peptide-specific CTLs against ML-2 cells (51Cr release); assay type: cell-based, human; settings: for Cytotoxicity of peptide-specific CTLs against ML-2 cells (%): target:effector 1:60
Excerpt: The present example illustrates that that the present peptides are capable of inducing a T-lymphocyte response. In this example, antigen presenting cells were pulsed at 150 micrograms of each peptide per 1 million antigen presenting cells with the following amino acid sequences: […]

dendritic cells = test: Phenotypic analysis of dendritic cells matured with maturation factors; assay type: cell-based, human; settings: DCs matured during last three days of culture
Method: Immature DCs were generated according to modified protocols of Romani et al. (1994) and Bakker et al. (1995). Briefly, fresh or frozen/thawed CD14+ cells were cultured in RPMI 1640 medium (Gibco-Life Technologies) supplemented with 10% FCS, 1,000 U/ml GM-CSF and 1,000 U/ml IL-4. The cell cultures were fed with fresh medium and GM-CSF and IL-4 every other day and cell differentiation was monitored by light microscopy. On day 7, the cultures were supplemented with different combinations of DC maturation factors such as lipopolysaccharide (100 U/ml), TNF-α (10 ng/ml), or IFN-α (1,000 U/ml) plus TNF-α (10 ng/ml). After three days of incubation, mature DCs (mDC) were harvested and evaluated for their phenotypes by flow cytometry. The maturation factor(s) yielding optimal DC maturation was determined and used to generate mDCs for peptide pulsing in upcoming studies. In this example, immature DCs obtained by the culture of CD 14+ monocytes with GM-CSF (1,000 U/ml) and IL-4 (1,000 U/ml) were induced to undergo maturation by incubation with LPS (100 Units/ml), TNF-α10 ng/ml) or TNF-α (10 ng/ml)+IFN-α50 ng/ml) during the final three days of the culture period. […] The highest up-regulation of the co-stimulatory (CD80 and CD86) and HLA-A2.1 MHC class I molecules was detected on DCs treated with TNF-α+IFN-α (Table 5).

[2] = system: effector cells (T lymphocytes); settings: APC: T2; 2 stims

Q: What does the source list for “ALISGDSPV (listed as Homo sapiens) [SEQ ID NO: 16, modified CD33 peptide]”?
A: binding to HLA-A2.1 on T2 cells, in words (HLA-A2.1): good and prolonged stable binding; immunogenicity in similar experiments [1]: immunogenic

Q: How did the “CD80 expression, mean channel fluorescence (MCF)” value (dendritic cells) turn out when TNF-α was run?
A: The value was 107.

Q: And the “CD86 expression, mean channel fluorescence (MCF)” value (dendritic cells)?
A: The value was 96.

Q: And the “HLA-A2.1 expression, mean channel fluorescence (MCF)” value (dendritic cells)?
A: Its value is 475.

Q: Which “Cytotoxicity of peptide-specific CTLs against ML-2 cells (%)” value (shortened to “Cytotoxicity … (%)”) ([1]; APC: DC, 2 stimulations, different donors) does the source give for “YIISGDSPV (listed as Homo sapiens) [SEQ ID NO: 3, modified CD33 peptide]” here?
A: Its value is 37%.

Q: With “YIISGISPV (listed as Homo sapiens) [SEQ ID NO: 6, modified CD33 peptide]” as the substance, how does the “binding to HLA-A2.1 on T2 cells, in words” value (HLA-A2.1) read?
A: The value was “good and prolonged stable binding”.

Q: For “YLALCLCLI (listed as Homo sapiens) [SEQ ID NO: 1]”, which “Cytotoxicity … (%)” value ([1]; APC: T2, 2 stimulations, donors F, G) is on record?
A: The value was 21% and 34%.

Q: What about the “Cytotoxicity … (%)” value ([1]; APC: T2, 3 stimulations, donors F, G) of the same substance?
A: Its value is 36% and 64%.

Q: What about the “Expression level of CD4 (T helper), mean fluorescence intensity” value [2] of the same substance?
A: Its value is 81 and 57.

Q: And the “Expression level of CD45RO (Memory), mean fluorescence intensity” value [2]?
A: Its value is 1262 and 1432.

Q: And the “Expression level of CD95 (Activation), mean fluorescence intensity” value [2]?
A: Its value is 99 and 102.

Q: “YLISGDSPV (listed as Homo sapiens) [SEQ ID NO: 7, modified CD33 peptide]” was tested. Which “binding to HLA-A2.1 on T2 cells, in words” value (HLA-A2.1) did it give?
A: Its value is “good and prolonged stable binding”.
